Experimental findings from patent publication US20090325959A1 (priority 2008, published 2009) are described below.

One data set deals with T1, ROCK1 (Homo sapiens, UniProt Q13464).
T1 construct: purchased Upstate/Chemicon 14-601
In words: Rho kinase inhibition assay (IMAP fluorescence polarization), ROCK1.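 Also: kinase reaction run 60 min at room temperature, then phosphorylated substrate captured on IMAP beads for 30 min, with fluorescence polarization read in mP.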 In kind it is biochemical.

The target in another data set is T2, ROCK2 (Homo sapiens, UniProt O75116).
T2 construct: purchased Upstate/Chemicon 14-451
T2 sequence (O75116 11-552 limits assumed): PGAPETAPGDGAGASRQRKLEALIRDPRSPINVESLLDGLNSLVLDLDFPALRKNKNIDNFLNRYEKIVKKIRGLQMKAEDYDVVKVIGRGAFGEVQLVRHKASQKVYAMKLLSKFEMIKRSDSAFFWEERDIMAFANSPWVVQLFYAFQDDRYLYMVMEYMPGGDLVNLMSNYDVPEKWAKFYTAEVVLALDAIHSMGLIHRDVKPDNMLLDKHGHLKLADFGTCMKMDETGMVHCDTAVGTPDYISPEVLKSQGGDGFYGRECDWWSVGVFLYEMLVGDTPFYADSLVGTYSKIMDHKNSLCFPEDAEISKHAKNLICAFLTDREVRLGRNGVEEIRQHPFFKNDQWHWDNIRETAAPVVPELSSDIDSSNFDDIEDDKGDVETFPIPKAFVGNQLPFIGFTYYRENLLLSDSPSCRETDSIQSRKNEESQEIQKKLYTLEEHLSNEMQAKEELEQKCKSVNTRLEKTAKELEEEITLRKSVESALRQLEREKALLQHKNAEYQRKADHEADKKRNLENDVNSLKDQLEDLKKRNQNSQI
In words: Rho kinase inhibition assay (IMAP fluorescence polarization), ROCK2.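 Also: kinase reaction started with 10 µM ATP and run 60 min at room temperature, then phosphorylated substrate captured on IMAP beads for 30 min and fluorescence polarization read in mP.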 Format: biochemical.

The target of another data set is T3, Akt3 human enzyme (Homo sapiens, UniProt Q9Y243).
T3 construct: purchased Upstate Chemicon 14-502
T3 sequence (Q9Y243 whole entry): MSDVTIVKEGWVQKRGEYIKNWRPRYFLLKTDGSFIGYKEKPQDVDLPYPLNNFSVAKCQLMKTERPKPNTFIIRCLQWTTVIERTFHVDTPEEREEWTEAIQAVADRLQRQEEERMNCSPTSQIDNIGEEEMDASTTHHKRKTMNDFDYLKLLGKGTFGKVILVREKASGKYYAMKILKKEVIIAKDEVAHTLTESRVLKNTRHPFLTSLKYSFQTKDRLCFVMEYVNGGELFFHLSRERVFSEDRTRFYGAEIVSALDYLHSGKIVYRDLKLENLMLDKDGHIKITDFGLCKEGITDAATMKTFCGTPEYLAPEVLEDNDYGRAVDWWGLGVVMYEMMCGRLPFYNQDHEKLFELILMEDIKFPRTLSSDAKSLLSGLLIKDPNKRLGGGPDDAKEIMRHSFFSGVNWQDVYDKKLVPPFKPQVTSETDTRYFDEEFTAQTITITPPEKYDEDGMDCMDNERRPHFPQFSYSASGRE
In words: Akt3 inhibition assay (IMAP FP).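 Also: kinase reaction run 60 min at room temperature after 30 µM ATP start, phosphorylated substrate captured on IMAP beads and read as fluorescence polarization (mP).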 In kind it is biochemical.

A further data set concerns the target T4, p70S6K human enzyme (Homo sapiens, UniProt P23443, T412E).
T4 construct: purchased Upstate Chemicon 14-486
In words: p70S6K inhibition assay (IMAP FP).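 Also: kinase reaction run at room temperature, phosphorylated substrate captured on IMAP beads and read as fluorescence polarization in mP, IC50 then converted to Ki.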 In kind it is biochemical.

Data set [1] can be described thus: Compound plasma concentrations in unsensitized mice at 15 min post administration. In kind it is in vivo. The settings on record: mouse, 15 μmol/kg; mean compound plasma concentration in mice at 15 minutes post oral administration; read-out: Mouse Oral PK.
Where [2] appears, read: 10 μM ATP, read-out: ROCK2 Ki, Avg.
Setting [3] is: 30 μM ATP, Ki=IC50/(1+([ATP Challenge]/EC50 ATP)), read-out: Akt3 Ki, Avg.
The mark [4] stands for this setting: 30 μM ATP, Ki=IC50/(1+([ATP Challenge]/EC50 ATP)), read-out: p70S6K Ki, Avg.
Setting [5] is: average Ki, read-out: p70S6K Ki.

SMILES strings stand for the structures. Like-named read-outs stand apart in the source and are kept apart here.

T1 sequence (Q13464 17-535 limits assumed): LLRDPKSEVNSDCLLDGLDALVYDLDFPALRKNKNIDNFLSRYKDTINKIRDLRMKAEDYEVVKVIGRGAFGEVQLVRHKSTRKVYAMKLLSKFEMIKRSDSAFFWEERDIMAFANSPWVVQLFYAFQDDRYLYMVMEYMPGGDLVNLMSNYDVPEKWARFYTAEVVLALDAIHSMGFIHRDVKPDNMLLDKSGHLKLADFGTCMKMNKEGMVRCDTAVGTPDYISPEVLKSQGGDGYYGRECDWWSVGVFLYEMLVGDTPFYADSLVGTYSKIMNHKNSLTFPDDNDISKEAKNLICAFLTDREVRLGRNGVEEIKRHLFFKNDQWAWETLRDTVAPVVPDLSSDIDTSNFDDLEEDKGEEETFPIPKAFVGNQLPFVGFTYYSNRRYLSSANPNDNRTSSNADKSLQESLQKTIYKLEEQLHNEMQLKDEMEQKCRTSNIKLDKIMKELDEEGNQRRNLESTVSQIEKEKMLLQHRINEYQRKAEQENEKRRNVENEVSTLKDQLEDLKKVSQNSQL
T4 sequence (P23443 1-421 T412E limits assumed): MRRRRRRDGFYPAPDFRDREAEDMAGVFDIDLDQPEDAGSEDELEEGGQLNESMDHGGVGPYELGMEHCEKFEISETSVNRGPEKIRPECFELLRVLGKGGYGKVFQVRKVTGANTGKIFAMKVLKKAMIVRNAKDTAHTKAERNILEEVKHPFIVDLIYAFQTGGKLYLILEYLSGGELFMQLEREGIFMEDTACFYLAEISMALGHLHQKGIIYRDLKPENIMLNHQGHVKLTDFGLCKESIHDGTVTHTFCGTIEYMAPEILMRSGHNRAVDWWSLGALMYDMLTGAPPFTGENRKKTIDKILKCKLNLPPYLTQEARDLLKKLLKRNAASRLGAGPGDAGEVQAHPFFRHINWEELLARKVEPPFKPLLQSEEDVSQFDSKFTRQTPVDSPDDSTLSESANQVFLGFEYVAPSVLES
Experimental for Akt3 human enzyme: Inhibition of Akt3 and p70S6K activity was determined using the IMAP™ FP Progressive Binding Kit (Molecular Devices product number R8127). […] Following the pre-incubation, 30 μM ATP was added to initiate the reaction. After 60 minutes at RT, Molecular Devices IMAP™ binding solution was added to bind phosphorylated substrate. After 30 minutes of incubation in the presence of the IMAP™ beads the fluorescence polarization was read and the ratio was reported as mP. IC50 results were calculated using the Prism software from Graphpad. The Ki values were determined according to the following formula: Ki=IC50/(1+([ATP Challenge]/EC50 ATP)).
Experimental for ROCK1: (§1) Following the pre-incubation, 10 μM ATP was added to initiate the reaction. After 60 minutes at room temperature, Molecular Devices IMAP™ binding solution was added to bind phosphorylated substrate. After 30 minutes of incubation in the presence of the IMAP™ beads, the fluorescence polarization was read and the ratio was reported as mP. IC50 values for compounds and EC50 values for ATP were calculated using the Prism software from Graphpad.
Experimental for ROCK2: as §1

Consider `c1cc(CN2CCC[C@H](Nc3ccc4[nH]ncc4c3)C2)cc(C2CC2)c1` [Compound 1.186, (S)-N-(1-(3-cyclopropylbenzyl)piperidin-3-yl)-1H-indazol-5-amine], for which the inhibition constant Ki at ROCK1 (Avg, 10 μM ATP) stood at 129 nM; at ROCK1 (average Ki), 129 nM; on ROCK2 (setting [2]), 11.9 nM; at ROCK2 (average Ki, read-out: ROCK2 Ki), 11.9 nM; on Akt3 human enzyme (setting [3]), 10200 nM; on Akt3 human enzyme (average Ki, read-out: Akt3 Ki), 10200 nM. Moreover, the Ki on p70S6K human enzyme (setting [4]) and at p70S6K human enzyme (setting [5]) was 1610 nM throughout. Also, the concentration at 15 min in data set [1] was found to be 2170 nM.

As for `Cc1ccc(CN2CCC[C@H](Nc3ccc4[nH]ncc4c3)C2)cc1NS(C)(=O)=O` [Compound 1.233, (S)-N-(5-((3-(1H-indazol-5-ylamino)piperidin-1-yl)methyl)-2-methylphenyl)methanesulfonamide], the Ki was 47.2 nM on ROCK1 (Avg, 10 μM ATP); 47.2 nM at ROCK1 (average Ki); 1.3 nM at ROCK2 (setting [2]); 1.3 nM at ROCK2 (average Ki, read-out: ROCK2 Ki); 2630 nM on Akt3 human enzyme (setting [3]); 2630 nM at Akt3 human enzyme (average Ki, read-out: Akt3 Ki). Moreover, the Ki on p70S6K human enzyme (setting [4]) and at p70S6K human enzyme (setting [5]) was 2000 nM in each case. Further, the concentration at 15 min in data set [1] is 41 nM.

For the compound `Cc1ccc(CN2CCC[C@H](Nc3ccc4[nH]ncc4c3)C2)cc1OCCO` [Compound 1.152, (S)-2-(5-((3-(1H-indazol-5-ylamino)piperidin-1-yl)methyl)-2-methylphenoxy)ethanol], the inhibition constant (Ki) at ROCK1 (Avg, 10 μM ATP) was 19.8 nM; at ROCK1 (average Ki) it was 19.8 nM; on ROCK2 (setting [2]), 3.3 nM; at ROCK2 (average Ki, read-out: ROCK2 Ki), 3.3 nM; at Akt3 human enzyme (setting [3]) it was 1980 nM; at Akt3 human enzyme (average Ki, read-out: Akt3 Ki) it was 1980 nM. The inhibitory constant (Ki) at p70S6K human enzyme (setting [4]) and on p70S6K human enzyme (setting [5]) was 523 nM in each case. Besides, the concentration at 15 min in data set [1] turned out to be 435 nM.

On to `CSc1cccc(CN2CCC[C@H](Nc3ccc4[nH]ncc4c3)C2)c1` [Compound 1.158, (S)-N-(1-(3-(methylthio)benzyl)piperidin-3-yl)-1H-indazol-5-amine], for which the Ki at ROCK1 (Avg, 10 μM ATP) amounted to 64.1 nM; at ROCK1 (average Ki), 64.1 nM; at ROCK2 (setting [2]), 5.1 nM; on ROCK2 (average Ki, read-out: ROCK2 Ki), 5.1 nM; on Akt3 human enzyme (setting [3]) it was 5910 nM; at Akt3 human enzyme (average Ki, read-out: Akt3 Ki) it was 5910 nM. Besides, the inhibition constant (Ki) on p70S6K human enzyme (setting [4]) and at p70S6K human enzyme (setting [5]) was 1970 nM each time. Moreover, in data set [1], the concentration at 15 min was determined as 102 nM.

As for `Clc1ccc(CN2CCC[C@H](Nc3ccc4[nH]ncc4c3)C2)cc1` [Compound 1.141, (S)-N-(1-(4-chlorobenzyl)piperidin-3-yl)-1H-indazol-5-amine], the Ki at ROCK1 (Avg, 10 μM ATP) is 28.5 nM; on ROCK1 (average Ki), 28.5 nM; on ROCK2 (setting [2]), 3.8 nM; at ROCK2 (average Ki, read-out: ROCK2 Ki), 3.8 nM; on Akt3 human enzyme (setting [3]), 1260 nM; at Akt3 human enzyme (average Ki, read-out: Akt3 Ki), 1260 nM. Moreover, the Ki on p70S6K human enzyme (setting [4]) and on p70S6K human enzyme (setting [5]) was 387 nM throughout. In addition, in data set [1], the concentration at 15 min came to 1640 nM.

Regarding `Cc1ccc(CN2CCC[C@@H](Nc3ccc4[nH]ncc4c3)C2)cc1` [Compound 1.133, (R)-N-(1-(4-methylbenzyl)piperidin-3-yl)-1H-indazol-5-amine], the Ki at ROCK1 (Avg, 10 μM ATP) came to 25 nM; at ROCK1 (average Ki), 25 nM; at ROCK2 (setting [2]), 4.3 nM; at ROCK2 (average Ki, read-out: ROCK2 Ki), 4.3 nM; on Akt3 human enzyme (setting [3]) it was 148 nM; at Akt3 human enzyme (average Ki, read-out: Akt3 Ki) it was 148 nM. Moreover, the Ki at p70S6K human enzyme (setting [4]) and on p70S6K human enzyme (setting [5]) was 532 nM in each case. In addition, in data set [1], the concentration at 15 min came to 1100 nM.

For `OCCn1ccc2ccc(CN3CCC[C@H](Nc4ccc5[nH]ncc5c4)C3)cc21` [Compound 1.109, (S)-2-(6-((3-(1H-indazol-5-ylamino)piperidin-1-yl)methyl)-1H-indol-1-yl)ethanol], the Ki at ROCK1 (Avg, 10 μM ATP) is 58.8 nM; at ROCK1 (average Ki), 58.8 nM; at ROCK2 (setting [2]) it was 9.6 nM; on ROCK2 (average Ki, read-out: ROCK2 Ki), 9.6 nM; on Akt3 human enzyme (setting [3]) it was 5190 nM; at Akt3 human enzyme (average Ki, read-out: Akt3 Ki), 5190 nM. Moreover, the inhibition constant Ki on p70S6K human enzyme (setting [4]) and on p70S6K human enzyme (setting [5]) was 2500 nM in each case. Moreover, the concentration at 15 min in data set [1] is 187 nM.

Turning to `CS(=O)(=O)Nc1cc(CN2CCC[C@@H](Nc3ccc4[nH]ncc4c3)C2)ccc1Cl` [Compound 1.212, (R)-N-(5-((3-(1H-indazol-5-ylamino)piperidin-1-yl)methyl)-2-chlorophenyl)methanesulfonamide], the Ki at ROCK1 (Avg, 10 μM ATP) came out at 44.2 nM; on ROCK1 (average Ki), 44.2 nM; at ROCK2 (setting [2]), 3.9 nM; at ROCK2 (average Ki, read-out: ROCK2 Ki), 3.9 nM; at Akt3 human enzyme (setting [3]) it was 390 nM; at Akt3 human enzyme (average Ki, read-out: Akt3 Ki), 390 nM. In addition, the Ki at p70S6K human enzyme (setting [4]) and at p70S6K human enzyme (setting [5]) was 894 nM each time. For the same compound, in data set [1], the concentration at 15 min turned out to be 863 nM.

As for `c1cc2cc(CN3CCC[C@H](Nc4ccc5[nH]ncc5c4)C3)ccc2o1` [Compound 1.150, (S)-N-(1-(benzofuran-5-ylmethyl)piperidin-3-yl)-1H-indazol-5-amine], the Ki was determined as 33.2 nM on ROCK1 (Avg, 10 μM ATP); 33.2 nM on ROCK1 (average Ki); 3.2 nM on ROCK2 (setting [2]); 3.2 nM on ROCK2 (average Ki, read-out: ROCK2 Ki); 3180 nM at Akt3 human enzyme (setting [3]); 3180 nM on Akt3 human enzyme (average Ki, read-out: Akt3 Ki). For the same compound, the Ki at p70S6K human enzyme (setting [4]) and at p70S6K human enzyme (setting [5]) was 1270 nM throughout. The concentration at 15 min in data set [1] was determined as 1390 nM.

`c1cc2cc(CN3CCC[C@H](Nc4ccc5[nH]ncc5c4)C3)ccc2[nH]1` [Compound 1.149, (S)-N-(1-((1H-indol-5-yl)methyl)piperidin-3-yl)-1H-indazol-5-amine]: the Ki at ROCK1 (Avg, 10 μM ATP) stood at 46.8 nM; at ROCK1 (average Ki), 46.8 nM; at ROCK2 (setting [2]), 4.2 nM; at ROCK2 (average Ki, read-out: ROCK2 Ki) it was 4.2 nM; on Akt3 human enzyme (setting [3]) it was 7400 nM; on Akt3 human enzyme (average Ki, read-out: Akt3 Ki) it was 7400 nM. The inhibition constant Ki at p70S6K human enzyme (setting [4]) and on p70S6K human enzyme (setting [5]) was 1890 nM each time. In addition, the concentration at 15 min in data set [1] was 1560 nM.

In the case of `NC(=O)c1cccc(CN2CCC[C@H](Nc3ccc4[nH]ncc4c3)C2)c1` [Compound 1.219, (8)-3-((3-(1H-indazol-5-ylamino)piperidin-1-yl)methyl)benzamide], the Ki at ROCK1 (Avg, 10 μM ATP) turned out to be 344 nM; at ROCK1 (average Ki), 344 nM; at ROCK2 (setting [2]) it was 15.4 nM; at ROCK2 (average Ki, read-out: ROCK2 Ki) it was 15.4 nM; on Akt3 human enzyme (setting [3]) it was 38300 nM; at Akt3 human enzyme (average Ki, read-out: Akt3 Ki) it was 38300 nM. Also, the Ki on p70S6K human enzyme (setting [4]) and on p70S6K human enzyme (setting [5]) was 4970 nM throughout. Moreover, the concentration at 15 min in data set [1] was 1680 nM.

In the case of `Brc1ccc(CN2CCC[C@@H](Nc3ccc4[nH]ncc4c3)C2)cc1` [Compound 1.134, (R)-N-(1-(4-bromobenzyl)piperidin-3-yl)-1H-indazol-5-amine], the Ki on ROCK1 (Avg, 10 μM ATP) worked out at 22.4 nM; at ROCK1 (average Ki) it was 22.4 nM; on ROCK2 (setting [2]) it was 4.4 nM; on ROCK2 (average Ki, read-out: ROCK2 Ki), 4.4 nM; on Akt3 human enzyme (setting [3]), 151 nM; at Akt3 human enzyme (average Ki, read-out: Akt3 Ki) it was 151 nM. In addition, the Ki at p70S6K human enzyme (setting [4]) and at p70S6K human enzyme (setting [5]) was 520 nM in each case. The concentration at 15 min in data set [1] was 1550 nM.

Turning to `OCc1ccc(CN2CCC[C@H](Nc3ccc4[nH]ncc4c3)C2)cc1` [Compound 1.223, (S)-(4-((3-(1H-indazol-5-ylamino)piperidin-1-yl)methyl)phenyl)methanol], the Ki on ROCK1 (Avg, 10 μM ATP) was determined as 239 nM; on ROCK1 (average Ki) it was 239 nM; on ROCK2 (setting [2]), 15.7 nM; on ROCK2 (average Ki, read-out: ROCK2 Ki), 15.7 nM; on Akt3 human enzyme (setting [3]), 11100 nM; at Akt3 human enzyme (average Ki, read-out: Akt3 Ki) it was 11100 nM. Moreover, the Ki on p70S6K human enzyme (setting [4]) and at p70S6K human enzyme (setting [5]) was 3100 nM throughout. For the same compound, in data set [1], the concentration at 15 min came out at 13 nM.
